Experimental data published in publication PMC12751025, “α‑Aminoboronic Acid Moieties in Boro Dipeptides Modulate Proteasome Subunit Selectivity and Provide Access to Compounds with Potent Anticancer and Anti-Inflammatory Activity” (Journal of Medicinal Chemistry, 2025).
Values after ≈ are worked out from the molar mass of the structure shown.

Tests used:
[1] = target: T1, β1c subunit of human cCP (Homo sapiens, UniProt P28072+Q99436); assay: IC50 determination with subunit-specific fluorogenic substrate Ac-nLPnLD-AMC; assay type: biochemical; conditions: human cCP; mean of at least three experiments; NA: not active at 50 μM
T1 construct: purchased Boston Biochem, Inc
Procedure: (§1) The measurements of the residual activity of control compounds were carried out at final compound concentrations of 1 μM in the assay buffer (50 mM Tris-HCl, 0.5 mM ethylenediaminetetraacetic acid (EDTA), pH 7.4). Stock solutions of the compounds were prepared in DMSO. To the 35 μL of solution of the compound in the buffer, 35 μL of 0.4 nM human iCP (South Bay Bio, San Jose, CA, USA) or human cCP (Boston Biochem, Inc., Cambridge, MA, USA) was added. For assays evaluating the activity of β2c and β2i, the buffer was modified by adding the proteasomal activator PA28β (Boston Biochem, Inc., Cambridge, MA, USA) at a final concentration of 6 nM. […] The substrates used were acetyl-Nle-Pro-Nle-Asp-7-amino-4-methylcoumarin (Ac-nLPnLD-AMC, Bachem, Bubendorf, Switzerland) for β1c, acetyl-Pro-Ala-Leu-7-amino-4-methylcoumarin (Ac-PAL-AMC, Boston Biochem, Inc., Cambridge, MA, USA) for β1i, acetyl-Arg-Leu-Arg-7-amino-4-methylcoumarin (Ac-RLR-AMC, Bachem, Bubendorf, Switzerland) for β2c and β2i, acetyl-Trp-Leu-Ala-7-amino-4-methylcoumarin (Ac-WLA-AMC, Bachem, Bubendorf, Switzerland) for β5c, and acetyl-Ala-Asn-Trp-7-amino-4-methylcoumarin (Ac-ANW-AMC, Bachem, Bubendorf, Switzerland) for β5i. Progress of the reaction was measured using a BioTek Synergy HT microplate reader, monitoring fluorescence at 460 nm (excitation at 360 nm) for 60 min at 37 °C. The initial linear ranges were used to calculate the reaction velocity and determine the residual activity.
(§2) The final assay mixtures contained 0.4 nM human iCP or cCP in assay buffer (50 mM Tris-HCl, 0.5 mM EDTA, pH 7.4, addition of PA28β for β2c and β2i subunits). […] After incubation at 37 °C for 30 min, the reaction was initiated by the addition of the substrate Ac-nLPnLD-AMC for β1c, Ac-PAL-AMC for β1i, Ac-RLR-AMC for β2c and β2i, Ac-WLA-AMC for β5c, and Ac-ANW-AMC for β5i. Fluorescence was monitored at 460 nm (excitation at 360 nm) for 60 min at 37 °C. The reaction progress was recorded and the initial linear phases were used to determine the velocity. The IC50 values were calculated using GraphPad Prism software (GraphPad Software, San Diego, CA, USA), and the results represent the mean values of at least three independent determinations.

[2] = target: T2, β2c subunit of human cCP (Homo sapiens, UniProt P49720+Q99436); assay: IC50 determination with fluorogenic substrate Ac-RLR-AMC (PA28β added); assay type: biochemical; conditions: human cCP; mean of at least three experiments; NA: not active at 50 μM
T2 construct: purchased Boston Biochem, Inc
Procedure: Stock solutions of the compounds were prepared in DMSO. To the 35 μL of solution of the compound in the buffer, 35 μL of 0.4 nM human iCP (South Bay Bio, San Jose, CA, USA) or human cCP (Boston Biochem, Inc., Cambridge, MA, USA) was added. For assays evaluating the activity of β2c and β2i, the buffer was modified by adding the proteasomal activator PA28β (Boston Biochem, Inc., Cambridge, MA, USA) at a final concentration of 6 nM. […] The substrates used were acetyl-Nle-Pro-Nle-Asp-7-amino-4-methylcoumarin (Ac-nLPnLD-AMC, Bachem, Bubendorf, Switzerland) for β1c, acetyl-Pro-Ala-Leu-7-amino-4-methylcoumarin (Ac-PAL-AMC, Boston Biochem, Inc., Cambridge, MA, USA) for β1i, acetyl-Arg-Leu-Arg-7-amino-4-methylcoumarin (Ac-RLR-AMC, Bachem, Bubendorf, Switzerland) for β2c and β2i, acetyl-Trp-Leu-Ala-7-amino-4-methylcoumarin (Ac-WLA-AMC, Bachem, Bubendorf, Switzerland) for β5c, and acetyl-Ala-Asn-Trp-7-amino-4-methylcoumarin (Ac-ANW-AMC, Bachem, Bubendorf, Switzerland) for β5i. Progress of the reaction was measured using a BioTek Synergy HT microplate reader, monitoring fluorescence at 460 nm (excitation at 360 nm) for 60 min at 37 °C. The initial linear ranges were used to calculate the reaction velocity and determine the residual activity.
as §2

[3] = target: T3, β5c subunit of human cCP (Homo sapiens, UniProt P20618+P28074); assay: IC50 determination with fluorogenic substrate Ac-WLA-AMC; assay type: biochemical; conditions: human cCP; mean of at least three experiments; NA: not active at 50 μM
T3 construct: purchased Boston Biochem, Inc
Procedure: as §1, §2

[4] = test system: LPS-stimulated PBMCs; assay: Cytokine secretion, Cytometric Bead Array; assay type: cell-based, human; conditions: for dose-dependent effects on cytokine release from LPS-stimulated PBMCs: dose–response curves (Figure S12)
Procedure: PBMCs (1.5 × 10^6/mL) were plated in culture media in 96-well round-bottom plates. After a 60 min treatment with compounds at 37 °C and 5% CO2, cells were stimulated with LPS (Escherichia coli, O111:B4, 1 μg/mL, Sigma) for 24 h. Supernatants were then collected and analyzed for cytokine release by Human Inflammatory Cytokine Cytometric Bead Array (BD Biosciences, New Jersey, USA).

[5] = Kinetic solubility; assay type: physicochemical; conditions: 25 °C; for solubility at 2 h / solubility kinetic at 2 h: phosphate-buffered saline, pH 7.4, aqueous buffer, kinetic from dmso stock; for solubility at 2 h: read-out: PBS solubility, pH 7.4; for solubility kinetic at 2 h: CSV column, unit inferred
Procedure: Briefly, using a 20 mM (10 mM for 5l) stock solution of the compound in 100% DMSO, dilutions were prepared to a theoretical concentration of 400 μM (200 μM for 5l) in duplicates in phosphate-buffered saline pH 7.4 (138 mM NaCl, 2.7 mM KCl, 10 mM K-phosphate) with 2% final DMSO. The experimental compound dilutions in PBS were further allowed to equilibrate at 25 °C on a thermostatic shaker for two hours and then filtered through HTS filter plates using a vacuum manifold. The filtrates of test compounds were diluted 2-fold with acetonitrile with 2% DMSO before measuring.
In parallel, using a 20 mM (10 mM for 5l) stock solution of the compound in 100% DMSO dilutions were prepared to theoretical concentrations of 0 μM (blank), […] (0 μM (blank), 10 μM, 25 50 μM, and 100 μM,μM for 5l) in 50% acetonitrile/PBS with 2% final DMSO to generate calibration curves. Ondansetron was used as a reference compound to control proper assay performance. 200 μL of each sample was transferred to a 96-well plate and measured in the 230-550 nm range with a 5 nm step. […]

[6] = Human plasma protein binding, equilibrium dialysis; assay type: in vitro ADME; conditions: for % of bound compound: human plasma, 1 μM, dialysis 5 h; for recovery at 5 h, 1 µM: human, pH 7.4; for recovery at 5 h, 1 µM / Stability [%]: plasma protein binding assay
Procedure: Human plasma protein binding
The assay was performed in a multiple-use 96-well dialysis unit (HTD96b dialyzer). Each individual well unit consisted of two chambers separated by a vertically aligned dialysis membrane of predetermined pore size (MWCO 14 kDa). 125 µL of non-diluted plasma spiked with the compound (1 μM, final DMSO and acetonitrile concentration was 0.005% and 1%, respectively) was added to one chamber and the same volume of PBS buffer pH 7.4 to the other chamber. HTD96b dialyzer was incubated with shaking (250 rpm) at 37 °C, 5% CO2, and a saturating humidity (~95%) for 5 h. For samples preparation, an aliquot of the content of each chamber had been mixed with the same volume of the blank opposite matrix. In order to define non-specific loss of the compound during this assay, standard solution was created by mixing an aliquot of spiked plasma with blank buffer without dialysis. Two aliquots of the standard solution were incubated with shaking (250 rpm) at 37 °C, 5% CO2, and a saturating humidity (~95%) for 5 h (recovery samples). The other two aliquots were immediately diluted with acetonitrile and stored at 4 °C until LC-MS/MS analysis (stability samples). All samples were diluted 5-fold with 90% acetonitrile with internal standard with subsequent plasma proteins sedimentation by centrifuging at 6000 rpm for 5 min. Supernatants were analyzed using HPLC system coupled with tandem mass spectrometer. […]

[7] = target: β5i subunit of human iCP (Homo sapiens, UniProt P20618+P28062); assay: IC50 determination with fluorogenic substrate Ac-ANW-AMC; conditions: IC50 β5i, human iCP; mean of at least three experiments; NA: not active at 50 μM
Procedure: as §1, §2

[8] = target: β2i subunit of human iCP (Homo sapiens, UniProt P40306+P49720); assay: IC50 determination with fluorogenic substrate Ac-RLR-AMC (PA28β added)
Procedure: as §1, §2

[9] = target: β1i subunit of human iCP (Homo sapiens, UniProt P28065+P40306); assay: IC50 determination with subunit-specific fluorogenic substrate Ac-PAL-AMC; conditions: IC50 β1i, human iCP; mean of at least three experiments; NA: not active at 50 μM
Procedure: as §1, §2

[10] = test system: PBMCs; assay: Cytotoxicity MTS assay; assay type: cell-based, human; conditions: 10, 50 and 250 nM, 24 h, MTS (Figure S1)
Procedure: Buffy coats from venous blood of anonymized healthy donors were purchased from Blood Transfusion Centre of Slovenia. PBMCs were isolated by density gradient centrifugation with Ficoll-Paque (Pharmacia, Sweden). The isolated cells were resuspended in RPMI 1640 medium (Sigma-Aldrich, St. Louis/MO, United States) supplemented with 10% heat-inactivated FBS (Gibco, ThermoFisher Scientific, Waltham/MA, United States), 2 mM L-glutamine (Sigma-Aldrich, St. Louis/MO, United States), 100 U/mL penicillin (Sigma-Aldrich, St. Louis/MO, United States), and 100 μg/mL streptomycin (Sigma-Aldrich, St. Louis/MO, United States).
Cytotoxicity was determined using the MTS cell proliferation assay (CellTiter 96 AQueous One Solution Cell Proliferation Assay, Promega, Wisconsin, USA), which measures mitochondrial metabolic activity as a surrogate for cell viability. The assay was performed according to the manufacturer protocol. The cytotoxicity was performed on HepG2, MCF-7, MDA-MB-231, MOLT-4, MM.1S, THP-1, RAJI cell lines and on HUVECs as well as PBMCs. The cells were seeded in 96-well plates (15.000–30.000 cells/well). After 24 h incubation at 5% CO2 and 37 °C, the cells were treated either with DMSO (negative control) or solutions of the tested compounds in DMSO. […] Cells were incubated for additional 2 h - 4 h, followed by the measurement of absorbance at 490 nm on the Tecan Spark microplate reader.

[11] = test system: human umbilical vein endothelial cells; assay: Cytotoxicity MTS assay; assay type: cell-based; conditions: 10, 50 and 250 nM, 72 h, MTS (Figure S2)
Procedure: Cytotoxicity was determined using the MTS cell proliferation assay (CellTiter 96 AQueous One Solution Cell Proliferation Assay, Promega, Wisconsin, USA), which measures mitochondrial metabolic activity as a surrogate for cell viability. The assay was performed according to the manufacturer protocol. The cytotoxicity was performed on HepG2, MCF-7, MDA-MB-231, MOLT-4, MM.1S, THP-1, RAJI cell lines and on HUVECs as well as PBMCs. The cells were seeded in 96-well plates (15.000–30.000 cells/well). After 24 h incubation at 5% CO2 and 37 °C, the cells were treated either with DMSO (negative control) or solutions of the tested compounds in DMSO. After 24 or 72 h, MTS reagent was added. Cells were incubated for additional 2 h - 4 h, followed by the measurement of absorbance at 490 nm on the Tecan Spark microplate reader.

[12] = kinetic solubility, 2% DMSO, two hours, theoretical concentration 400 μM (200 μM for 5l)

Row | SMILES | IC50 [1] [nM] | IC50 [2] [nM] | IC50 [3] [nM] | Effect on secretion of cytokines in LPS-stimulated PBMCs ([4]; 250 nM, 1 h pretreatment, LPS 1 μg/mL, 24 h, IL-1, IL-6, IL-8, IL-10, TNF-α) | dose-dependent effects on cytokine release from LPS-stimulated PBMCs [4] | solubility at 2 h [5, 12] [µM] | solubility kinetic at 2 h [5] [µM] | % of bound compound [6] [%] | recovery at 5 h, 1 µM [6] [%] | Stability [%] [6] [%] | IC50 [7] [nM] | IC50 [8] [nM] | IC50 [9] [nM] | cytotoxic effect on PBMCs [10] | cytotoxic effect on human umbilical vein endothelial cells [11] | PBS solubility, pH 7.4 [5, 12] [μM]
1 | O=C(N[C@@H](Cc1ccccc1)C(=O)N[C@H](B(O)O)C1CCCC1)c1cnccn1 [5l, ((R)-Cyclopentyl((S)-3-phenyl-2-(pyrazine-2-carboxamido)propanamido)methyl)boronic Acid] | 18 | 37400 | 44 | strongest effects | very comparable effects | ≥ 200 | > 200 | 91 | 93 | 86 | 58 | 1000 | 3 |  |  | 
2 | CC(C)C[C@H](NC(=O)[C@H](Cc1ccccc1)NC(=O)c1cnccn1)B(O)O [bortezomib, reference compound] |  |  |  |  | very comparable effects | 399 (≈ 153 µg/mL) | 399 (≈ 153 µg/mL) | 93 | 100 | 92 |  |  |  | more cytotoxic | more cytotoxic | > 200
